Some results are limits rather than exact numbers.

These results are taken from patent publication US20170320848A1, “COMPOUNDS FOR USE IN ANTHELMINTHIC TREATMENT” (Bayer Animal Health GMBH, priority 2014, published 2017).

A short description of series [1]: Measurement of LogP values by HPLC on reversed phase columns (EEC directive 79/831 Annex V.A8). The class given is physicochemical. The following applies: acidic range, 0.1% formic acid in water and acetonitrile as eluent, read-out: logP (HCOOH)[a].
A further series concerns Haemonchus contortus. Briefly: Haemonchus contortus assay (HAEMCO), larval mortality. The class given is cell-based. Conditions: Haemonchus contortus, 120 h; application rate 20 ppm, after 5 days; read-out: activity (percentage of larval mortality). The method, then:
Haemonchus Contortus—Assay (HAEMCO)
Solvent: dimethyl sulfoxide
To produce a suitable preparation, 10 mg of active compound are dissolved in 0.5 ml solvent, and the concentrate is diluted with “Ringer's solution” to the desired concentration.
Approximately 40 larvae of the red stomach worm (Haemonchus contortus) are transferred into a test tube containing compound solution.
After 5 days percentage of larval mortality are recorded. 100% efficacy means all larvae are killed, 0% efficacy means no larvae are killed.

In series [2] the test system is Nippostrongylus brasiliensis. Briefly: Nippostrongylus brasiliensis assay (NIPOBR), acetylcholine esterase readout. The class given is cell-based. The following applies: read-out: activity (reduction of AChE compared to negative control). The method, then: Nippostrongylus Brasiliensis—Assay (NIPOBR)
Adult Nippostrongylus brasiliensis were washed with saline buffer containing 100 U/ml penicillin, 0.1 mg/ml streptomycin and 2.5 μg/ml amphotericin B. Test compounds were dissolved in DMSO and worms were incubated in medium in a final concentration of 10 μg/ml (10 ppm) respectively 1 μg/ml (1 ppm). An aliquot of the medium was used to determine the acetylcholine esterase activity in comparison to a negative control. The principle of measuring acetylcholine esterase as readout for anthelmintic activity was described in Rapson et al (1986) and Rapson et al (1987).

The next series has as its system Meloidogyne incognita. Nature of the series: Meloidogyne incognita assay (MELGIN), gall formation on salad seedlings. The class given is in vivo. The following applies: application rate 20 ppm, after 14 days. The method, then: Meloidogyne Incognita—Assay (MELGIN)
Solvent: 125.0 parts by weight of acetone
To produce a suitable preparation, 1 part by weight of active compound is mixed with the stated amount of solvent, and the concentrate is diluted with water to the desired concentration.
Vessels are filled with sand, a solution of the active ingredient, a suspension containing eggs and larvae of the southern root-knot nematode (Meloidogyne incognita) and salad seeds. The salad seeds germinate and the seedlings grow. Galls develop in the roots.
After 14 days the nematicidal activity is determined on the basis of the percentage of gall formation. 100% means no galls were found and 0% means the number of galls found on the roots of the treated plants was equal to that in untreated control plants.

Another series concerns Cooperia curticei. Nature of the series: Cooperia curticei assay (COOPCU), larval mortality. Conditions: Cooperia curticei, 120 h; application rate 20 ppm, after 5 days; read-out: activity (percentage of larval mortality). The class given is cell-based.

As for `Cc1cc(-c2ccc(F)cc2)ccc1C(F)(F)CNC(=O)c1ccccc1C(F)(F)F` [Example 38], the chromatographic logP in series [1] is 4.16. Also, the mortality at 20 ppm in the series with Haemonchus contortus and with Cooperia curticei was 100% each time. Further, in series [2], the inhibition at 10 µg/mL was no less than 75%. Also, in the series on Meloidogyne incognita, the “nematicidal activity (percentage of gall formation)” value was 100%.
